Data taken from ChEMBL document CHEMBL1909046, “DrugMatrix in vitro pharmacology data”.

How the values were obtained:
[1] = molecular target: T1, C-C chemokine receptor type 4 (Homo sapiens, UniProt P51679); format: cell membranes, Membrane; conditions: chem-1
T1 sequence (P51679 whole entry): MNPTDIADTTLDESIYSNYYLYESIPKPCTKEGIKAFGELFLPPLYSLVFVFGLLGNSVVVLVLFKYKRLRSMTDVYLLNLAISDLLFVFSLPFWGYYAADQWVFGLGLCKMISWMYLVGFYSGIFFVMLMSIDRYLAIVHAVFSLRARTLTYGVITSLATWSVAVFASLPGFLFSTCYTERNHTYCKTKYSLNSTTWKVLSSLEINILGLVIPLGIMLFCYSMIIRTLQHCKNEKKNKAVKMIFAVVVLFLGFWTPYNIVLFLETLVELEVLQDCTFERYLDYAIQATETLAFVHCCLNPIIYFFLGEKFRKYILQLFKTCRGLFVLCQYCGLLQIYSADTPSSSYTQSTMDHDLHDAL

[2] = molecular target: T2, Receptor-type tyrosine-protein phosphatase C (Homo sapiens, UniProt P08575); set-up: species or system Escherichia coli;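 also: inhibition of CD45 enzyme activity measured using DiFMUP as substrate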
T2 sequence (P08575 whole entry): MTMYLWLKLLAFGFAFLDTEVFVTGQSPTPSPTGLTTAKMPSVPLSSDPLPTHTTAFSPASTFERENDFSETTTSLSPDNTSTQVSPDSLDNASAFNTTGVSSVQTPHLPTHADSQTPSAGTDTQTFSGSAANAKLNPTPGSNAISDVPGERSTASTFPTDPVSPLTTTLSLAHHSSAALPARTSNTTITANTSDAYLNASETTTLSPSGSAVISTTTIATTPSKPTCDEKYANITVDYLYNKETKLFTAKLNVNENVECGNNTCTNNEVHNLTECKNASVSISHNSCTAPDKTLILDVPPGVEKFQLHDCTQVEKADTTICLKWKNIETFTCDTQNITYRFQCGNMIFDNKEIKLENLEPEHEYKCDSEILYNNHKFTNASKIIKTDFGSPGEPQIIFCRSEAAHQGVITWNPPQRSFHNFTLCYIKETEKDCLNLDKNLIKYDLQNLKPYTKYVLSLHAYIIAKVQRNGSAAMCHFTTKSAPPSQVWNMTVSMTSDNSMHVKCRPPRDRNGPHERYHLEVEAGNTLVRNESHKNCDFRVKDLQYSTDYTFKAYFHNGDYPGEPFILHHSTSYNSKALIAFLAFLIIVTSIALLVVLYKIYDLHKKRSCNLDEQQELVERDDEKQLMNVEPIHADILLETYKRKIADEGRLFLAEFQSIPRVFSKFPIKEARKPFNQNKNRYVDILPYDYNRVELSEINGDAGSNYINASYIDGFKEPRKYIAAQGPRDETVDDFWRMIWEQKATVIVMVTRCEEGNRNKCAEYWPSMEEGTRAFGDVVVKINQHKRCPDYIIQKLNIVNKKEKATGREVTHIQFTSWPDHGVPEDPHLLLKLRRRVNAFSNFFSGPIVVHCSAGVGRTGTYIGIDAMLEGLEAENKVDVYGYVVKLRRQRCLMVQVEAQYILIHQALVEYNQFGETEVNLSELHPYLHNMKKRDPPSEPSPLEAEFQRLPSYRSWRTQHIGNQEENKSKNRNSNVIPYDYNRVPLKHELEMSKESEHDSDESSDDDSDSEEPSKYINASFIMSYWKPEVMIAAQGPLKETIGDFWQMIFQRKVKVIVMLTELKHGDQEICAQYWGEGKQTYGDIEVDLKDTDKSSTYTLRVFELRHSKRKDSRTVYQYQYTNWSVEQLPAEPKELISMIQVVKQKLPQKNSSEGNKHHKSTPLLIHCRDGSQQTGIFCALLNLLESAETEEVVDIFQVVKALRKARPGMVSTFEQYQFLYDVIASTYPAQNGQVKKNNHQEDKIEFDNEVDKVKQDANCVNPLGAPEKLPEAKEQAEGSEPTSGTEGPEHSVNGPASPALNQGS

Cytochrome P450 2D6 = Cytochrome P450 2D6 (Homo sapiens, UniProt P10635); conditions: bti-tn-5b1-4
Sequence of Cytochrome P450 2D6 (P10635 whole entry): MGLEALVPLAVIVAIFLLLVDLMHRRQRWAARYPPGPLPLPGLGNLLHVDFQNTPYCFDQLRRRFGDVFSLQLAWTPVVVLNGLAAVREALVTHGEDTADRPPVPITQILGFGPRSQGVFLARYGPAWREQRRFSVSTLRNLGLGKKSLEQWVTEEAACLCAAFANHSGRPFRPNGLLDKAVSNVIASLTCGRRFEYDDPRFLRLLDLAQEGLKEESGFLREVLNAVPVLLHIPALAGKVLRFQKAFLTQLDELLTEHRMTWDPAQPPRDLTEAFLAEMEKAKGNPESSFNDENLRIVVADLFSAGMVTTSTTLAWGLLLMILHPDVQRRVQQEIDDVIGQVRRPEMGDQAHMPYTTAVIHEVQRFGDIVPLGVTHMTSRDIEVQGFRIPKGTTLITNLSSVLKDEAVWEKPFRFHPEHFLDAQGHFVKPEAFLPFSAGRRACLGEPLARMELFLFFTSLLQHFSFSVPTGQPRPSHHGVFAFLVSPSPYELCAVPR

[3] = molecular target: Prostaglandin G/H synthase 1 (Homo sapiens, UniProt P23219); assay: biochemical; format: tissue-based, Platelet;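 also: inhibition of COX-1 enzyme activity, with arachidonic acid supplied as substrate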
Sequence of Prostaglandin G/H synthase 1 (P23219 whole entry): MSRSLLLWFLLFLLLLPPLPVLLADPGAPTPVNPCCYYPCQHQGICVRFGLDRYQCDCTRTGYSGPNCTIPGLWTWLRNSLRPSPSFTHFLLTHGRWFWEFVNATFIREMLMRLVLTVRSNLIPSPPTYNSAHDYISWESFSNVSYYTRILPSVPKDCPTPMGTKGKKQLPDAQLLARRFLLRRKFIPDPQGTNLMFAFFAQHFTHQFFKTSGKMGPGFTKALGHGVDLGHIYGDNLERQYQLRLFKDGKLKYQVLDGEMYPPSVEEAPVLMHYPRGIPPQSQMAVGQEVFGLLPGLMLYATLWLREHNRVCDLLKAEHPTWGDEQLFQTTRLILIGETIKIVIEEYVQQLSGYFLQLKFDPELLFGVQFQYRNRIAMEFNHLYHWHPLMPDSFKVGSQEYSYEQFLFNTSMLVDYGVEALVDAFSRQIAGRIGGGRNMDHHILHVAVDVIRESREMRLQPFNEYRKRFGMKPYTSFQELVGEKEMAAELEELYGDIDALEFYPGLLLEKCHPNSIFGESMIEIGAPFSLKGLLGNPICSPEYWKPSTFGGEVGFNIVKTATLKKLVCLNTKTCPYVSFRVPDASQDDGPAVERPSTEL

Cytochrome P450 2E1 = Cytochrome P450 2E1 (Homo sapiens, UniProt P05181); conditions: bti-tn-5b1-4
Sequence of Cytochrome P450 2E1 (P05181 whole entry): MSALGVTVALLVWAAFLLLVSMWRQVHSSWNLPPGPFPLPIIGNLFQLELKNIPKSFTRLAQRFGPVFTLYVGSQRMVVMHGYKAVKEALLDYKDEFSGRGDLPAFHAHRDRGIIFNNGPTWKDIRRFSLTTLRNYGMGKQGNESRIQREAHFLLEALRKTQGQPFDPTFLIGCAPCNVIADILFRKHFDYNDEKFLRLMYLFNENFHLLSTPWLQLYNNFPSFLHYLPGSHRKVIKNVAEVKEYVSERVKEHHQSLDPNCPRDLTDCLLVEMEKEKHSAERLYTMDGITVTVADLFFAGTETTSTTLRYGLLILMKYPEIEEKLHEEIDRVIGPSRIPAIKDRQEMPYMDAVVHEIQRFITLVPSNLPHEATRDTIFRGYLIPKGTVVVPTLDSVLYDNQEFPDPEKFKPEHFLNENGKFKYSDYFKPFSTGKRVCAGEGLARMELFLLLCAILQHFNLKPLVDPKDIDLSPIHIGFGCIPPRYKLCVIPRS

Substance-K receptor = molecular target: T3, Substance-K receptor (Homo sapiens, UniProt P21452); format: cell membranes, CHO, Membrane; conditions: cho
T3 sequence (P21452 whole entry): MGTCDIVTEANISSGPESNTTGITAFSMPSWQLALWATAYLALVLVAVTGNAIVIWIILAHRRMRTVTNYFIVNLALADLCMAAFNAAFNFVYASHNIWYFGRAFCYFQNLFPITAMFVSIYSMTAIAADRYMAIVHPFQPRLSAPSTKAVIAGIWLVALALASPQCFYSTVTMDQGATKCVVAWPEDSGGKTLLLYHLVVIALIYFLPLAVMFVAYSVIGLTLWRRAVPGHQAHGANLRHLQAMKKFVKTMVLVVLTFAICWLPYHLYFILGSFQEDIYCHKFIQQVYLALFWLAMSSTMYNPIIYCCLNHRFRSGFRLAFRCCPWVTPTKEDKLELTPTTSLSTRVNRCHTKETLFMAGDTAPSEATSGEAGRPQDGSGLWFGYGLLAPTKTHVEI

[4] = molecular target: 5-hydroxytryptamine receptor 2B (Homo sapiens, UniProt P41595); format: cell membranes, CHO-K1, Membrane
Sequence of 5-hydroxytryptamine receptor 2B (P41595 whole entry): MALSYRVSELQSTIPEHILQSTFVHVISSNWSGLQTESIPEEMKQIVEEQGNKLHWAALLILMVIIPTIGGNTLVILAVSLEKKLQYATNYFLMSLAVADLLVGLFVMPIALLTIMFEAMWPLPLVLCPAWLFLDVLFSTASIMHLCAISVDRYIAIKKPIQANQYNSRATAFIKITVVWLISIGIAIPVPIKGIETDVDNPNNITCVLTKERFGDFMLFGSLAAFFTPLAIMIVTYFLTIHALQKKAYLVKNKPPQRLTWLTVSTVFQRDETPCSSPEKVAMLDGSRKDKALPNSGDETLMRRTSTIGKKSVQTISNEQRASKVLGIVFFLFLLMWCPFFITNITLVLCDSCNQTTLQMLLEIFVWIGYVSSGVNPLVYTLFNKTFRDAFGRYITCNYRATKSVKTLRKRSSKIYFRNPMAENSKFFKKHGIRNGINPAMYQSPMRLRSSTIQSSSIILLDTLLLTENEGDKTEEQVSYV
Also: in other assays of this panel Not Active means under 50% inhibition at 10 µM.

| Molecule | IC50 [1] | IC50 [2] | IC50 (Cytochrome P450 2D6) | Ki (Cytochrome P450 2D6) | IC50 ([3]; platelet) | IC50 (Cytochrome P450 2E1) | Ki (Cytochrome P450 2E1) | IC50 (Substance-K receptor) | IC50 ([4]; cho-k1) | IC50 ([4]; read-out: IC50) [nM] | Ki ([4]; read-out: Ki) [nM] | IC50 ([3]; read-out: IC50) [nM] | Ki [1] | Ki [2] | Ki ([3]; platelet) | Ki (Substance-K receptor) | Ki ([4]; cho-k1) |
| --- | --- | --- | --- | --- | --- | --- | --- | --- | --- | --- | --- | --- | --- | --- | --- | --- | --- |
| Nc1cc(N2CCCCC2)nc(N)[n+]1[O-] [MINOXIDIL] | Not Active | Not Active | Not Active | Not Active | Not Active | Not Active | Not Active | Not Active | Not Active |  |  |  |  |  |  |  |  |
| CO[C@H]1/C=C/O[C@@]2(C)Oc3c(C)c(O)c4c(O)c(c(/C=N/N5CCN(C6CCCC6)CC5)c(O)c4c3C2=O)NC(=O)/C(C)=C\C=C\[C@H](C)[C@H](O)[C@@H](C)[C@@H](O)[C@@H](C)[C@H](OC(C)=O)[C@@H]1C [RIFAPENTINE] | Not Active | Not Active | Not Active | Not Active | Not Active | Not Active | Not Active | Not Active | Not Active |  |  |  |  |  |  |  |  |
| CCCCOc1cc(CC2CNC(=O)N2)ccc1OC (stereo unspecified) [RO-201724] | Not Active | Not Active | Not Active | Not Active | Not Active | Not Active | Not Active | Not Active | Not Active |  |  |  |  |  |  |  |  |
| CC[C@@H](C(=O)[C@@H](C)[C@@H](O)[C@H](C)[C@@H]1O[C@@H]([C@@H](CC)C(=O)O)CC[C@@H]1C)[C@H]1O[C@]2(C=C[C@@H](O)[C@]3(CC[C@@](C)([C@H]4CC[C@](O)(CC)[C@H](C)O4)O3)O2)[C@H](C)C[C@@H]1C [SALINOMYCIN] | Not Active | Not Active | Not Active | Not Active | Not Active | Not Active | Not Active | Not Active | Not Active |  |  |  |  |  |  |  |  |
| O=C(Oc1ccccc1C(=O)O)c1ccccc1O [SALSALATE] | Not Active | Not Active | Not Active | Not Active | Not Active | Not Active | Not Active | Not Active | Not Active |  |  |  |  |  |  |  |  |
| O=C(O)c1cn(-c2ccc(F)cc2)c2cc(N3CCNCC3)c(F)cc2c1=O [SARAFLOXACIN] | Not Active | Not Active | Not Active | Not Active | Not Active | Not Active | Not Active | Not Active | Not Active |  |  |  |  |  |  |  |  |
| CN[C@H]1CC[C@@H](c2ccc(Cl)c(Cl)c2)c2ccccc21 [SERTRALINE] | Not Active | Not Active | Not Active | Not Active | Not Active | Not Active | Not Active | Not Active |  | 3390 | 2160 |  |  |  |  |  |  |
| CC(C)NCC(O)c1ccc(NS(C)(=O)=O)cc1 (stereo unspecified) [SOTALOL] | Not Active | Not Active | Not Active | Not Active | Not Active | Not Active | Not Active | Not Active | Not Active |  |  |  |  |  |  |  |  |
| O.O.O.O.O.O.[Cl-].[Cl-].[Sr+2] [STRONTIUM CHLORIDE HEXAHYDRATE] | Not Active | Not Active | Not Active | Not Active | Not Active | Not Active | Not Active | Not Active | Not Active |  |  |  |  |  |  |  |  |
| O=C1C(CC[S+]([O-])c2ccccc2)C(=O)N(c2ccccc2)N1c1ccccc1 (stereo unspecified) [SULFINPYRAZONE] | Not Active | Not Active | Not Active | Not Active | Not Active | Not Active | Not Active | Not Active | Not Active |  |  |  |  |  |  |  |  |
| NC(=O)N1C(=O)/C(=C(\O)c2cccs2)c2cc(Cl)ccc21 [TENIDAP] | Not Active | Not Active | Not Active | Not Active |  | Not Active | Not Active | Not Active | Not Active |  |  | 55 |  |  |  |  |  |
| COc1cc2nc(N3CCN(C(=O)C4CCCO4)CC3)nc(N)c2cc1OC (stereo unspecified) [TERAZOSIN] | Not Active | Not Active | Not Active | Not Active | Not Active | Not Active | Not Active | Not Active | Not Active |  |  |  |  |  |  |  |  |
| Cn1c(=O)c2nc[nH]c2n(C)c1=O.O [THEOPHYLLINE] | Not Active | Not Active | Not Active | Not Active | Not Active | Not Active | Not Active | Not Active | Not Active |  |  |  |  |  |  |  |  |
| CS(=O)(=O)c1ccc([C@@H](O)[C@@H](CO)NC(=O)C(Cl)Cl)cc1 [THIAMPHENICOL] | Not Active | Not Active | Not Active | Not Active | Not Active | Not Active | Not Active | Not Active | Not Active |  |  |  |  |  |  |  |  |
| CCN(CC)CCNC(=O)c1cc(S(C)(=O)=O)ccc1OC [TIAPRIDE] | Not Active | Not Active | Not Active | Not Active | Not Active | Not Active | Not Active | Not Active | Not Active |  |  |  |  |  |  |  |  |
| NC1CCN(c2nc3c(cc2F)c(=O)c(C(=O)O)cn3-c2ccc(F)cc2F)C1 (stereo unspecified) [TOSUFLOXACIN] | Not Active | Not Active | Not Active | Not Active | Not Active | Not Active | Not Active | Not Active | Not Active |  |  |  |  |  |  |  |  |
| O=C(Nc1ccc(Br)cc1)c1cc(Br)cc(Br)c1O [TRIBROMSALAN] | Not Active | Not Active | Not Active | Not Active |  | Not Active | Not Active | Not Active | Not Active |  |  | 2070 |  |  |  |  |  |
| CC(c1cc2ccccc2s1)N(O)C(N)=O (stereo unspecified) [ZILEUTON] | Not Active | Not Active | Not Active | Not Active | Not Active | Not Active | Not Active | Not Active | Not Active |  |  |  |  |  |  |  |  |
| MANGANESE CHLORIDE ANHYDROUS | Not Active | Not Active | Not Active | Not Active | Not Active | Not Active | Not Active | Not Active | Not Active |  |  |  | Not Active | Not Active | Not Active | Not Active | Not Active |
| SODIUM ORTHOVANAD | Not Active | Not Active | Not Active | Not Active | Not Active | Not Active | Not Active | Not Active | Not Active |  |  |  | Not Active | Not Active | Not Active | Not Active | Not Active |
